Experiments:
male Sprague-Dawley rats [1] = assay: Pain models after a single intrathecal dose: thermal escape, formalin and thermal injury evoked hyperalgesia, tactile allodynia in the Chung model of neuropathy; type: in vivo, rat; conditions: single intrathecal dose of 10, 25 or 50 Φg/10 Φl saline with 20% or 25% DMSO
Experimental: Civamide 10 Φg/10 Φl saline, 25Φg/10 Φl saline, and 50 Φg/10 Φl saline and saline itself were administered intrathecally to male Sprague-Dawley rats. Each of the civamide compositions also included either 20% DMSO or 25% DMSO as a suspending agent. The saline used was 0.9% USP. Eighteen hours, 7 days, 14 days and 28 days after administration of a single intrathecal dose of either civamide or saline, models for various types of pain were evaluated. These included models for acute nociceptive processing (i.e. thermal escape), post tissue injury hyperpathic states (i.e. formalin and thermal injury evoked hyperalgesia) and nerve injury induced hyperpathia (i.e. tactile allodynia in the Chung model of neuropathy).

[2] = type: physicochemical
From the text: Civamide in amounts of 1 Φg, 5 Φg, 10 Φg, 50 Φg, and 100 Φg was dispersed in both 10 Φl and 20 Φl of each of the following: 100% dimethylsulfoxide (DMSO), normal saline (0.9% w/v sodium chloride) with 10% DMSO as suspending agent, normal saline with 0.5% DMSO and 10% cyclodextrin, 10% cyclodextrin and 10% DMSO as suspending agent, and normal saline with 10% cyclodextrin suspending agent, and normal saline with 25% DMSO. In each case, the saline was 0.9% USP.

male Sprague-Dawley rats [3] = assay: Tail flick, hot plate (49° C., 52° C.) and paw pressure pain models after intrathecal administration; type: in vivo, rat; conditions: 1-100 Φg in 10 or 20 Φl, evaluated seven days later, paw pressure
Experimental: Civamide and capsaicin were each separately administered intrathecally, in dosages of 1 Φg, 5 Φg, 10 Φg, 50 Φg, or 100 Φg in either 10 Φl or 20 Φl of 0.9% USP saline with 25% DMSO suspending agent, 0.9% USP saline and 10% cyclodextrin, and 0.9% USP saline with 0.5% DMSO and 10% cyclodextrin, to male Sprague-Dawley rats into whom intrathecal catheters had been inserted. Seven days later, tail flick, hot plate (49° C., 52° C.) and paw pressure pain models were evaluated.

[4] = compositions containing civamide, per U.S. Pat. No. 5,063,060; cited from earlier work
neurons = assay: Neurotoxicity of civamide (applicant's discovery, no method given)

COc1cc(CNC(=O)CCCC/C=C\C(C)C)ccc1O [Civamide, cis-8-methyl-N-vanillyl-6-nonenamide]
duration of the effects of a single dose (male Sprague-Dawley rats [1]): at least 28 days | time after administration by which effective pain amelioration was produced (male Sprague-Dawley rats [1]): ≤ 18 h | physical and chemical stability of compositions [2]: physically and chemically stable | effectiveness versus intrathecally administered capsaicin in pain models (male Sprague-Dawley rats [3]): more effective than intrathecally administered capsaicin | effectiveness versus saline in pain models (male Sprague-Dawley rats [3]): significantly more effective than saline | efficacy compared with compositions containing capsaicin [4]: comparable in efficacy | local adverse effects compared with capsaicin [4]: significantly less local adverse effects | neurotoxicity (neurons): no significant neurotoxicity

Reference: US20050085552A1, “Method for providing long-lasting pain relief through intrathecal administration of civamide” (Winston Laboratories, Inc., priority 2003, published 2005)
